How the values were obtained:
[1] = tested on: avian influenza A virus Ulster/73, H7N1; assay type: cell-based; settings: A/Ulster/73, H7N1 strain
[2] = tested on: human influenza A virus NWS/33, H1N1; assay type: cell-based
[3] = tested on: viral haemagglutinin HA antigen on the cellular surface of infected LLC-MK2 cells; assay type: cell-based, influenza A virus; settings: 24 and 48 hours post infection; treated versus untreated infected LLC-MK2 cells
[4] = tested on: human influenza A virus NWS/33, H1N1; assay type: cell-based; remark: listed apart in the source
[5] = tested on: virus-induced polypeptides of A/NWS/33 in LLC-MK2 cells; assay type: cell-based, influenza A virus; settings: MESNA 20 mg/ml, effect particularly evident at 1, 2, 5, 1.0, 15 mg/ml
[6] = tested on: virus-specific receptors located on red blood cells; design: species or system human; settings: red blood cells used for the haemagglutination assay
[7] = tested on: human influenza A virus NWS/33, H1N1; assay type: cell-based; remark: listed apart in the source

| SMILES | results with avian strain compared with human influenza virus A/NWS/33 [1] | reversibility of inhibition of the production of viral particles [2] | haemagglutinin molecules on the surface of infected cells (haemadsorption values) [3] | virus production (haemagglutination, presence/absence of mature viral particles) [4] | synthesis of virus-induced polypeptides (early and late viral proteins) [5] | interference with virus-specific receptors on red blood cells [6] | time of addition up to which MESNA is effective [7] [hours post infection] | antiviral action in comparison studies (all experiments repeated) [4] |
| --- | --- | --- | --- | --- | --- | --- | --- | --- |
| O=S(=O)([O-])CCS.[Na+] [MESNA, Sodium 2-mercaptoethanesulfonate] | completely reproducible and absolutely comparable | irreversible inhibition | great reduction, if not the absence | able to suppress virus production | marked reduction | did not interfere | ≤ 6 | – |
| O=C([O-])CN(CCN(CC(=O)[O-])CC(=O)[O-])CC(=O)[O-].[Na+].[Na+].[Na+].[Na+] [sodium edetate] | – | – | – | – | – | – | – | not able to exert an antiviral action |
